In patent US20180265515A1 (Genentech, Inc., priority 2015, published 2018) one finds Ki and IC50 data, which are given here for 19 molecules.

Test [1] concerns the target T1, isolated recombinant JAK1 kinase domain (Homo sapiens, UniProt P23458).
T1 construct: The activity of the isolated recombinant JAK1 and JAK2 kinase domain was measured
Put plainly: JAK1 enzyme assay (Caliper LabChip, Ki). It is filed as biochemical. The note with it: recombinant JAK1 kinase domain, 25 μM ATP. In a few lines: (§1)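 Ki values fitted with Morrison tight-binding equation adjusted for ATP-competitive inhibition, using product-to-total peptide ratio read by Caliper LabChip. Reactions: isolated JAK1 or JAK2 kinase domain with N-terminal 5-carboxyfluorescein JAK3-derived peptide, 22° C for 30 min, quenched by EDTA.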

Test [2] has as its target T2, isolated recombinant JAK2 kinase domain (Homo sapiens, UniProt O60674).
T2 construct: The activity of the isolated recombinant JAK1 and JAK2 kinase domain was measured
Put plainly: JAK2 enzyme assay (Caliper LabChip, Ki). It is filed as biochemical. Particulars: 25 μM ATP. Summed up: as §1

In test [3] the test system is JAK1-dependent STAT6 phosphorylation downstream of IL-13 stimulation in BEAS-2B human bronchial epithelial cells. Put plainly: JAK1 pathway assay in BEAS-2B cells (IL-13 stimulated STAT6 phosphorylation, MSD). It is filed as cell-based. Particulars: read-out: P-STAT6 BEAS2B + IL13 IC50. In a few lines:
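BEAS-2B human bronchial epithelial cells, plated the day before in complete growth medium, were preincubated with compound for 1 hr at 37° C (0.2% DMSO final), then stimulated with IL-13 at its EC90 for 15 min. STAT6 phosphorylation in lysates was read by MSD; EC50 was taken as 50% inhibition versus DMSO control.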

T1 sequence (P23458 875-1153 limits assumed): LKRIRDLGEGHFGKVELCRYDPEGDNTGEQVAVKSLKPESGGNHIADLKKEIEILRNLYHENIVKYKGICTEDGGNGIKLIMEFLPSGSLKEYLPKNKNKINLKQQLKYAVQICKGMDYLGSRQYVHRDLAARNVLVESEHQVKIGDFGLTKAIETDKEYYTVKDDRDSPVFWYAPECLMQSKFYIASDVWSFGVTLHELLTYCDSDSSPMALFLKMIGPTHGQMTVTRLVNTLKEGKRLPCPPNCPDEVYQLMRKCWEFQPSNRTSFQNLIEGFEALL
T2 sequence (O60674 849-1124 limits assumed): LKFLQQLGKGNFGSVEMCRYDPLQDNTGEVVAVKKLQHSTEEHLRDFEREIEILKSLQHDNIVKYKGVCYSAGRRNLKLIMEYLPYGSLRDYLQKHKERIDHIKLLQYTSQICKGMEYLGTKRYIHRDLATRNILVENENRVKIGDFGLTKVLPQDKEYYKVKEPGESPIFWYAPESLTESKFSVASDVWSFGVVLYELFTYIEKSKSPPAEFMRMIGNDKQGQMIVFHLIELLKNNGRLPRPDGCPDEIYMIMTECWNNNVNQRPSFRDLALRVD

What is called Ki is the dissociation constant of the complex between target and ligand, obtained from inhibition or displacement. What is called IC50 is the midpoint of a concentration-inhibition curve. Consider `CC(C)Sc1ccc(OC(F)F)c(-c2n[nH]cc2NC(=O)c2cnn3cccnc23)c1` [Example 101, N-[3-[2-(difluoromethoxy)-5-(propan-2-ylsulfanyl)phenyl]-1H-pyrazol-4-yl]pyrazolo[1,5-a]pyrimidine-3-carboxamide], for which the results for the Ki in test [1] and in test [2] were 0.2 nM and 0.093 nM, respectively. In addition, in test [3], the IC50 turned out to be 3.7 nM.
In the same order, the values of `CC(C)Sc1ccc(OC(F)F)c(-c2nn(CC(=O)N3CCC(N4CCOCC4)CC3)cc2NC(=O)c2cnn3cccnc23)c1` [Example 102, N-[3-[2-(difluoromethoxy)-5-isopropylsulfanyl-phenyl]-1-[2-(4-morpholino-1-piperidyl)-2-oxo-ethyl]pyrazol-4-yl]pyrazolo[1,5-a]pyrimidine-3-carboxamide] are 0.38 nM, 0.85 nM and 20 nM.
As to `CC(C)Sc1ccc(OC(F)F)c(-c2nn(CC(=O)N3CCN(CCCC#N)CC3)cc2NC(=O)c2cnn3cccnc23)c1` [Example 103, N-[1-[2-[4-(3-cyanopropyl)piperazin-1-yl]-2-oxo-ethyl]-3-[2-(difluoromethoxy)-5-isopropylsulfanyl-phenyl]pyrazol-4-yl]pyrazolo[1,5-a]pyrimidine-3-carboxamide], the Ki in test [1] stood at 0.33 nM; in test [2], 0.75 nM. Besides, the IC50 in test [3] is 41 nM.
As for `CC(C)Sc1ccc(OC(F)F)c(-c2nn(CC(=O)N3CCC(NCC(=O)N(C)C)CC3)cc2NC(=O)c2cnn3cccnc23)c1` [Example 104, N-[3-[2-(difluoromethoxy)-5-isopropylsulfanyl-phenyl]-1-[2-[4-[[2-(dimethylamino)-2-oxo-ethyl]amino]-1-piperidyl]-2-oxo-ethyl]pyrazol-4-yl]pyrazolo[1,5-a]pyrimidine-3-carboxamide], the Ki in test [1] was 0.42 nM; in test [2] it was 1.2 nM. In test [3], the IC50 was determined as 160 nM.
Regarding `CC(C)Sc1ccc(OC(F)F)c(-c2nn(CC(=O)N3CCC(N(C)CC(=O)N(C)C)CC3)cc2NC(=O)c2cnn3cccnc23)c1` [Example 105, N-[3-[2-(difluoromethoxy)-5-isopropylsulfanyl-phenyl]-1-[2-[4-[[2-(dimethylamino)-2-oxo-ethyl]-methyl-amino]-1-piperidyl]-2-oxo-ethyl]pyrazol-4-yl]pyrazolo[1,5-a]pyrimidine-3-carboxamide], the Ki in test [1] turned out to be 0.43 nM; in test [2] it was 1.3 nM. In addition, the IC50 in test [3] came out at 72 nM.
For the molecule `CC(C)Sc1ccc(OC(F)F)c(-c2nn(CC(=O)N3CCC(N4CCN(C)C(=O)C4)CC3)cc2NC(=O)c2cnn3cccnc23)c1` [Example 106, N-[3-[2-(difluoromethoxy)-5-isopropylsulfanyl-phenyl]-1-[2-[4-(4-methyl-3-oxo-piperazin-1-yl)-1-piperidyl]-2-oxo-ethyl]pyrazol-4-yl]pyrazolo[1,5-a]pyrimidine-3-carboxamide], the figures for the Ki in test [1] and in test [2] were 0.4 nM and 0.79 nM, respectively. In addition, the IC50 in test [3] is 110 nM.
For the molecule `CC(C)Sc1ccc(OC(F)F)c(-c2nn(CC(=O)N3CCC(N4CCCC(C#N)C4)CC3)cc2NC(=O)c2cnn3cccnc23)c1` (stereo not drawn) [Example 107, N-[1-[2-[4-(3-cyano-1-piperidyl)-1-piperidyl]-2-oxo-ethyl]-3-[2-(difluoromethoxy)-5-isopropylsulfanyl-phenyl]pyrazol-4-yl]pyrazolo[1,5-a]pyrimidine-3-carboxamide], the Ki in test [1] was determined as 0.75 nM; in test [2] it was 1.7 nM. Also, the IC50 in test [3] was 56 nM.
In the case of `CC(C)Sc1ccc(OC(F)F)c(-c2nn(CC(=O)N3CCC(N4CCNC(=O)C4)CC3)cc2NC(=O)c2cnn3cccnc23)c1` [Example 108, N-[3-[2-(difluoromethoxy)-5-isopropylsulfanyl-phenyl]-1-[2-oxo-2-[4-(3-oxopiperazin-1-yl)-1-piperidyl]ethyl]pyrazol-4-yl]pyrazolo[1,5-a]pyrimidine-3-carboxamide], the Ki in test [1] worked out at 0.37 nM; in test [2] it was 0.94 nM. Further, the IC50 in test [3] was determined as 850 nM.
The corresponding values for `CC(C)Sc1ccc(OC(F)F)c(-c2nn(CC(=O)N3CCN(CCN4CCOCC4)CC3)cc2NC(=O)c2cnn3cccnc23)c1` [Example 109, N-[3-[2-(difluoromethoxy)-5-isopropylsulfanyl-phenyl]-1-[2-[4-(2-morpholinoethyl)piperazin-1-yl]-2-oxo-ethyl]pyrazol-4-yl]pyrazolo[1,5-a]pyrimidine-3-carboxamide] are 0.41 nM, 0.78 nM and 33 nM.
As for `CC(C)Sc1ccc(OC(F)F)c(-c2nn(CC(=O)N3CCC(N(C)C4COC4)CC3)cc2NC(=O)c2cnn3cccnc23)c1` [Example 110, N-[3-[2-(difluoromethoxy)-5-isopropylsulfanyl-phenyl]-1-[2-[4-[methyl(oxetan-3-yl)amino]-1-piperidyl]-2-oxo-ethyl]pyrazol-4-yl]pyrazolo[1,5-a]pyrimidine-3-carboxamide], the Ki in test [1] is 0.41 nM; in test [2], 1 nM. For the same molecule, the IC50 in test [3] worked out at 27 nM.
As for `CC(C)Sc1ccc(OC(F)F)c(-c2nn(CC(=O)N3CCC(N4CCSCC4)CC3)cc2NC(=O)c2cnn3cccnc23)c1` [Example 111, N-[3-[2-(difluoromethoxy)-5-isopropylsulfanyl-phenyl]-1-[2-oxo-2-(4-thiomorpholino-1-piperidyl)ethyl]pyrazol-4-yl]pyrazolo[1,5-a]pyrimidine-3-carboxamide], the Ki in test [1] came out at 0.38 nM; in test [2], 1 nM. Further, in test [3], the IC50 was 19 nM.
Regarding `CC(C)Sc1ccc(OC(F)F)c(-c2nn(CCN)cc2NC(=O)c2cnn3cccnc23)c1` [Example 112, N-[1-(2-aminoethyl)-3-[2-(difluoromethoxy)-5-isopropylsulfanyl-phenyl]pyrazol-4-yl]pyrazolo[1,5-a]pyrimidine-3-carboxamide], the Ki in test [1] and in test [2] was 0.39 nM in each case. For the same molecule, the IC50 in test [3] amounted to 18 nM.
In the case of `CC(C)Sc1ccc(OC(F)F)c(-c2nn(C[C@H]3CCCN3)cc2NC(=O)c2cnn3cccnc23)c1` [Example 113, N-[3-[2-(difluoromethoxy)-5-isoproplsulfanyl-phenyl]-1-[[(2R)-pyrrolidin-2-yl]methyl]pyrazol-4-yl]pyrazolo[1,5-a]pyrimidine-3-carboxamide], the Ki in test [1] was determined as 0.64 nM; in test [2], 0.78 nM. For the same molecule, in test [3], the IC50 was 20 nM.
For `CC(C)Sc1ccc(OC(F)F)c(-c2nn(CC(=O)N3CCC(CN4CCN(CC(=O)N(C)C)CC4)CC3)cc2NC(=O)c2cnn3cccnc23)c1` [Example 114, N-[3-[2-(difluoromethoxy)-5-isopropylsulfanyl-phenyl]-1-[2-[4-[[4-[2-(dimethylamino)-2-oxo-ethyl]piperazin-1-yl]methyl]-1-piperidyl]-2-oxo-ethyl]pyrazol-4-yl]pyrazolo[1,5-a]pyrimidine-3-carboxamide], the values for the Ki in test [1] and in test [2] were 1.6 nM and 3.9 nM, respectively. Further, the IC50 in test [3] was 55 nM.
In the same order, the values of `CC(C)Sc1ccc(OC(F)F)c(-c2nn(CC(=O)N3CCC(NCC4(C#N)CC4)CC3)cc2NC(=O)c2cnn3cccnc23)c1` [Example 115, N-[1-[2-[4-[(1-cyanocyclopropyl)methylamino]-1-piperidyl]-2-oxo-ethyl]-3-[2-(difluoromethoxy)-5-isopropylsulfanyl-phenyl]pyrazol-4-yl]pyrazolo[1,5-a]pyrimidine-3-carboxamide] are 0.65 nM, 1.6 nM and 34 nM.
Take `COCCN1CCN(C(=O)Cn2cc(NC(=O)c3cnn4cccnc34)c(-c3cc(SC(C)C)ccc3OC(F)F)n2)CC1` [Example 116, N-[3-[2-(difluoromethoxy)-5-isopropylsulfanyl-phenyl]-1-[2-[4-(2-methoxyethyl)piperazin-1-yl]-2-oxo-ethyl]pyrazol-4-yl]pyrazolo[1,5-a]pyrimidine-3-carboxamide]: the Ki amounted to 0.51 nM in test [1] and 1 nM in test [2]. Further, the IC50 in test [3] came to 26 nM.
The corresponding values for `CC(C)Sc1ccc(OC(F)F)c(-c2nn(CC(=O)N3CCN(C)CC3)cc2NC(=O)c2cnn3cccnc23)c1` [Example 117, N-[3-[2-(difluoromethoxy)-5-isopropylsulfanyl-phenyl]-1-[2-(4-methylpiperazin-1-yl)-2-oxo-ethyl]pyrazol-4-yl]pyrazolo[1,5-a]pyrimidine-3-carboxamide] are 0.7 nM, 1.4 nM and 21 nM.
On to `CC(C)Sc1ccc(OC(F)F)c(-c2nn(CC(=O)N3CCC(N4CCN(C)CC4)CC3)cc2NC(=O)c2cnn3cccnc23)c1` [Example 118, N-[3-[2-(difluoromethoxy)-5-isopropylsulfanyl-phenyl]-1-[2-[4-(4-methylpiperazin-1-yl)-1-piperidyl]-2-oxo-ethyl]pyrazol-4-yl]pyrazolo[1,5-a]pyrimidine-3-carboxamide], for which the Ki in test [1] came to 0.6 nM; in test [2] it was 1.8 nM. In addition, in test [3], the IC50 stood at 40 nM.
For the molecule `CC(C)Sc1ccc(OC(F)F)c(-c2nn(CC(=O)N3CCN(C4CCSCC4)CC3)cc2NC(=O)c2cnn3cccnc23)c1` [Example 119, N-[3-[2-(difluoromethoxy)-5-isopropylsulfanyl-phenyl]-1-[2-oxo-2-(4-tetrahydrothiopyran-4-ylpiperazin-1-yl)ethyl]pyrazol-4-yl]pyrazolo[1,5-a]pyrimidine-3-carboxamide], the Ki in test [1] came out at 0.47 nM; in test [2] it was 0.96 nM. In addition, the IC50 in test [3] was 30 nM.
